pIC50: −log10 of the molar value.
Key:
Experiment in all cases: cell-based
Nav1.5 = Nav1.5 (Homo sapiens, UniProt Q14524)
Kv4.3 = target: T1, Kv4.3 (Homo sapiens, UniProt Q9UK17)
T1 sequence (Q9UK17 1-655): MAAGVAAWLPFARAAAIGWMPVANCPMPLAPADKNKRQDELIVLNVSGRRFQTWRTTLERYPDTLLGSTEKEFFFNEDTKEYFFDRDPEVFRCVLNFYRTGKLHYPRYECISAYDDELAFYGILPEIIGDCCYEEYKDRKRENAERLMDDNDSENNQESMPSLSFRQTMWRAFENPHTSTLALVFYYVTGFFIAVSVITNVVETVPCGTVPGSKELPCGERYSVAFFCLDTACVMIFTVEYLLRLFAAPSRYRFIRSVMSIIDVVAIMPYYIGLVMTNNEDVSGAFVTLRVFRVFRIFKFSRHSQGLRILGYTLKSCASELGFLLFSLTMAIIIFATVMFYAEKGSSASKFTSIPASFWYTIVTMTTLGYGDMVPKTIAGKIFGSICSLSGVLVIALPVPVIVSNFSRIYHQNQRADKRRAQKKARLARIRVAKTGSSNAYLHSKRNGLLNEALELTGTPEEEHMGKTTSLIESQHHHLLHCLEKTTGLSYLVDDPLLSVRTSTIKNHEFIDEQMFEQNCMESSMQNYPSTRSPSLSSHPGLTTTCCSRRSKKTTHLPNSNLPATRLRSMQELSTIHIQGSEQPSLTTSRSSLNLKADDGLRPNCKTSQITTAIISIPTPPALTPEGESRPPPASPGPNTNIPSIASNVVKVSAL

HCN4 = target: T2, HCN4 (Homo sapiens, UniProt Q9Y3Q4)
T2 sequence (Q9Y3Q4 1-1203): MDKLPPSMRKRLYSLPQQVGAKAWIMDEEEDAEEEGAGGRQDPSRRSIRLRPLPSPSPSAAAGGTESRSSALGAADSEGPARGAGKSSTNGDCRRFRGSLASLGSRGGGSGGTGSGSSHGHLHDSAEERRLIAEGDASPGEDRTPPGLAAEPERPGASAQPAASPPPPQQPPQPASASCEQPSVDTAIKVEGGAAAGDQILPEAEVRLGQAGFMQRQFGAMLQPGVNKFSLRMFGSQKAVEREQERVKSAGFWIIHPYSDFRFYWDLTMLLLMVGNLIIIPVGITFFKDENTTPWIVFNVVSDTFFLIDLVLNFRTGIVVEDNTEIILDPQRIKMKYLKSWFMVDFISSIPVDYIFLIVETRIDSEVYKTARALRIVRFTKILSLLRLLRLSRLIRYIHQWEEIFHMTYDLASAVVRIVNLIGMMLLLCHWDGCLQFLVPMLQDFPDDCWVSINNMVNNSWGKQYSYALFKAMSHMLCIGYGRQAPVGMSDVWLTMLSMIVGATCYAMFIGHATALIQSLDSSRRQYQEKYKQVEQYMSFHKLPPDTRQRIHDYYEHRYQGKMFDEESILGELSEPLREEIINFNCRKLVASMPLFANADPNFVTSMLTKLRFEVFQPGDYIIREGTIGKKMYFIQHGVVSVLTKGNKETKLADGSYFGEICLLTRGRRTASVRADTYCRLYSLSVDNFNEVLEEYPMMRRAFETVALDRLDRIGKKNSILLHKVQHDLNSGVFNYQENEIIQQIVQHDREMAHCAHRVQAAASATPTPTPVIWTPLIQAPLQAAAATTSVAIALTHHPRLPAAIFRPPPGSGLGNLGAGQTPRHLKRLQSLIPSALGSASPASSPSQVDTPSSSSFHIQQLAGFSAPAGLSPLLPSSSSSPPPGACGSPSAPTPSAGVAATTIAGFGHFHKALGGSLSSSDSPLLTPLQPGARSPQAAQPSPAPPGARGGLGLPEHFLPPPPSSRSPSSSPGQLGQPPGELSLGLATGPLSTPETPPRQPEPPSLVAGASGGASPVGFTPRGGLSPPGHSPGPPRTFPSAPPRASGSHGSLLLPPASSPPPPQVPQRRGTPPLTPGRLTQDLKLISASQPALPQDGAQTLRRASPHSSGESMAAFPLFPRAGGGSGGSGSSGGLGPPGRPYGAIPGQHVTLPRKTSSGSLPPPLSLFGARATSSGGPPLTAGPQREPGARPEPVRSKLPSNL

TWIK2 = target: T3, TWIK2 (Homo sapiens, UniProt Q9Y257)
T3 sequence (Q9Y257 1-313): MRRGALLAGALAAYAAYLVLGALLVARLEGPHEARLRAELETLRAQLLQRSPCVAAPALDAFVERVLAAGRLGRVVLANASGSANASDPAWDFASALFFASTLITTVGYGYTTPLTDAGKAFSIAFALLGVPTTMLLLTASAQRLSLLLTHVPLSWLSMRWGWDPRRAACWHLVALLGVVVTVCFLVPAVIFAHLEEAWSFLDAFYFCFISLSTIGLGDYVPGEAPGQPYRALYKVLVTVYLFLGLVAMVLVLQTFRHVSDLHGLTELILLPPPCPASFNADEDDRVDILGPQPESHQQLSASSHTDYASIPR

TRPA1 = TRPA1 (Homo sapiens, UniProt O75762)
Chain of TRPA1 (O75762 whole entry): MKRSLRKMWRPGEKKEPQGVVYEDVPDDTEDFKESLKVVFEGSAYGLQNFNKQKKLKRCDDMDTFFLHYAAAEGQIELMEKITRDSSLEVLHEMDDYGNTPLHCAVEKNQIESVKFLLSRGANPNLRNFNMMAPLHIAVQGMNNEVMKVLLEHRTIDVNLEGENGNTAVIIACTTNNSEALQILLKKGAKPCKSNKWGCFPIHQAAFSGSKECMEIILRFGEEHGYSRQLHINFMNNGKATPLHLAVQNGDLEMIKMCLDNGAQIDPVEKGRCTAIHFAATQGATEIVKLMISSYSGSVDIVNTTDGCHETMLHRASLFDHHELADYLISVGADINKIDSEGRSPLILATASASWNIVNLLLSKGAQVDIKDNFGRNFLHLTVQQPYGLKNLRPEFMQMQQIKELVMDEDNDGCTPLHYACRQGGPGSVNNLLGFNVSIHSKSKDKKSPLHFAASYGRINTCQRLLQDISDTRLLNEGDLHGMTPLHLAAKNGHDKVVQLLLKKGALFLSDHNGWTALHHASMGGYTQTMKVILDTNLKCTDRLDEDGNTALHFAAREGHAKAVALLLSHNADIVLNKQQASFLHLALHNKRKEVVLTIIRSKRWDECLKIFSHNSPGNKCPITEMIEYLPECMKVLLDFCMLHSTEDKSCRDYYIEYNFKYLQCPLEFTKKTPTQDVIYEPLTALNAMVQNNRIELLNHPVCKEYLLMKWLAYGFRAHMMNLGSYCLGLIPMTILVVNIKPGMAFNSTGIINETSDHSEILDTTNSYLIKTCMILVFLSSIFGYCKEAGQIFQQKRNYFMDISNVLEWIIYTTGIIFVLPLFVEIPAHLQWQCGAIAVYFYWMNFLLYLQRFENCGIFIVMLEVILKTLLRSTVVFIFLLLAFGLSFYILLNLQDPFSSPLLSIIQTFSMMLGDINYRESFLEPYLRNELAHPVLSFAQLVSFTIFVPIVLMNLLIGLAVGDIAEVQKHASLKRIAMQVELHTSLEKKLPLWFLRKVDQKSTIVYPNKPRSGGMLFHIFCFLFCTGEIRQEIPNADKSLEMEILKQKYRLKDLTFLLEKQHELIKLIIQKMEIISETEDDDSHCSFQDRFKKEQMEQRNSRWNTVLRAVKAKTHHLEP

Chain of Nav1.5 (Q14524 whole entry): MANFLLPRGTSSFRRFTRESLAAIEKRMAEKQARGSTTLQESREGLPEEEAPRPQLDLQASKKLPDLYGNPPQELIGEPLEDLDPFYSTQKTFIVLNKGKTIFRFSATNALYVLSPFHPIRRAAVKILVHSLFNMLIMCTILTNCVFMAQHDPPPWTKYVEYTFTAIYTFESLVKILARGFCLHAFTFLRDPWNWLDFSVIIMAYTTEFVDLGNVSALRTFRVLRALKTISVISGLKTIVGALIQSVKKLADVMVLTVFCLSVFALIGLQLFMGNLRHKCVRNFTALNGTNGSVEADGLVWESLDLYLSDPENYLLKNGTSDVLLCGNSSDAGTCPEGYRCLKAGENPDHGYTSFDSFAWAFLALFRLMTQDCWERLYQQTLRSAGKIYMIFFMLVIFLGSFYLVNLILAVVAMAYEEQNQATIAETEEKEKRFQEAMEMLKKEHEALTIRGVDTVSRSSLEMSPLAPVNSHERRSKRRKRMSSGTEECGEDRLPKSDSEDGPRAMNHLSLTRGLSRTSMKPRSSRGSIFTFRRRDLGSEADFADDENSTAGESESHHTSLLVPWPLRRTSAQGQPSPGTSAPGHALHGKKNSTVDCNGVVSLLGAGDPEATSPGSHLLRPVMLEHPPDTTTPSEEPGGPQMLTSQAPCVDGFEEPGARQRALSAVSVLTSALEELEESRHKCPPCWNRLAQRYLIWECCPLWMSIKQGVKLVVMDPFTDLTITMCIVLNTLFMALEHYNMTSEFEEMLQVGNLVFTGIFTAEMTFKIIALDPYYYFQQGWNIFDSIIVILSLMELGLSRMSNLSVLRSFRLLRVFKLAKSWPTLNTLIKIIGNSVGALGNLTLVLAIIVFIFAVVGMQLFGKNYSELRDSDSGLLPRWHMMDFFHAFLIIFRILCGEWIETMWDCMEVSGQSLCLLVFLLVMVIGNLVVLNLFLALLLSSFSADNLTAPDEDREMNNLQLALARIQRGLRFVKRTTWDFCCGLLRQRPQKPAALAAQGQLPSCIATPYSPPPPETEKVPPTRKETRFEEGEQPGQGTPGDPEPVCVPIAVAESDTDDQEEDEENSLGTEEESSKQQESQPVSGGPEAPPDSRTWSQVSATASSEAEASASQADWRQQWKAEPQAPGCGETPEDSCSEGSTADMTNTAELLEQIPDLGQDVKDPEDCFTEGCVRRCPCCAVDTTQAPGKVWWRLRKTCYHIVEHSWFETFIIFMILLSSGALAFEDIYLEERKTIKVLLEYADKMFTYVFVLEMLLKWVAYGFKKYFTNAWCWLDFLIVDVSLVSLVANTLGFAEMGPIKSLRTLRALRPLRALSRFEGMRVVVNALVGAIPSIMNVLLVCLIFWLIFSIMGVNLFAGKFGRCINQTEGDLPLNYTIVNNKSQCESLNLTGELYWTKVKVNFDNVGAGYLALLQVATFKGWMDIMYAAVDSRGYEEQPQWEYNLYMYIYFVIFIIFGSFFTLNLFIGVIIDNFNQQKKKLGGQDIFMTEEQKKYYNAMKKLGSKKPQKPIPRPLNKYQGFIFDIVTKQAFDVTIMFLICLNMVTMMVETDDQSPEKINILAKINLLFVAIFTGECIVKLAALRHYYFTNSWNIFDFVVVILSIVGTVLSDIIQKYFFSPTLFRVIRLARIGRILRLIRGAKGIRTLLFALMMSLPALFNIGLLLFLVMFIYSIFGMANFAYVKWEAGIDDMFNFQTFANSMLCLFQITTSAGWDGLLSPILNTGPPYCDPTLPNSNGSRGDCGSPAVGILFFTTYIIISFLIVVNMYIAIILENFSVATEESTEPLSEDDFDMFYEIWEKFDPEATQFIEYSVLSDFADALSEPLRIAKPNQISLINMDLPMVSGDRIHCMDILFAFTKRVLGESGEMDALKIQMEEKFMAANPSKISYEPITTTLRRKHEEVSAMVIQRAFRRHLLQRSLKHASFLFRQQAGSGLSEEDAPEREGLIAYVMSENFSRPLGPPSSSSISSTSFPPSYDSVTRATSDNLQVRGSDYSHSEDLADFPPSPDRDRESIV

- pIC50 (Kv4.3): < 5.00
- pIC50 (HCN4): < 4.52
- pIC50 (TWIK2): < 4.52
- pIC50 (TRPA1): < 4.52
SMILES: O=C(c1ccccc1F)N1CCN(Cc2c(-c3ccc(Br)cc3)nc3ccccn23)CC1 [BAY 1000493, (4-{[2-(4-bromophenyl)imidazo[1,2-a]pyridin-3-yl]methyl}vpiperazin-1-yl)(2-fluorophenyl)methanone]
- pIC50 (Nav1.5): < 4.52

— article doi:10.1101/706168v1 (biorxiv, 2019)
